# Test results taken from ChEMBL document CHEMBL5678804 (Cancer Cell, 2011).
# The source made the active and inactive calls. No cut-off for these calls is given here.
# Legend:
# [1] = target: Tyrosine-protein kinase receptor TYRO3 (Homo sapiens, UniProt Q06418); assay: Inhibition of human wild type SKY using PolyEY as substrate preincubated for 2 hrs followed by ATP addition and measured every 2 mins for […] by spectrophotometric analysis
# [2] = target: Signal transducer and activator of transcription 5A (Homo sapiens) (UniProt P42229); assay: Inhibition of STAT5 phosphorylation in Ph+ B-ALL patient with […] mutation derived human Leukemia cell at 50 to 1000 nM by immunoblot analysis; format: cell-based; conditions: dose 50-1000 nM
# [3] = target: Mitogen-activated protein kinase 12 (Homo sapiens, UniProt P53778); assay: Inhibition of human wild type p38 gamma using RBER-IRStide as substrate preincubated for 2 hrs followed by ATP addition and measured every 2 mins for […] by spectrophotometric analysis
# [4] = target: Tyrosine-protein kinase ITK/TSK (Homo sapiens, UniProt Q08881); assay: Inhibition of human wild type ITK using PolyEY as substrate preincubated for 2 hrs followed by ATP addition and measured every 2 mins for […] by spectrophotometric analysis
# [5] = target: Serine/threonine-protein kinase SIK2 (Homo sapiens, UniProt Q9H0K1); assay: Inhibition of human wild type SIK2 using RBER-CHKtide as substrate preincubated for 2 hrs followed by ATP addition and measured every 2 mins for […] by spectrophotometric analysis
# [6] = target: Homeodomain-interacting protein kinase 4 (Homo sapiens, UniProt Q8NE63); assay: Inhibition of human wild type HIPK4 using RBER-IRStide as substrate preincubated for 2 hrs followed by ATP addition and measured every 2 mins for […] by spectrophotometric analysis
# [7] = target: Serine/threonine-protein kinase TAO1 (Homo sapiens, UniProt Q7L7X3); assay: Inhibition of human TAOK1 preincubated for 2 hrs followed by ATP addition and measured every 2 mins for […] by spectrophotometric analysis
# [8] = target: Tyrosine-protein kinase ABL1 (Homo sapiens, UniProt P00519); conditions: Sf9, time 2.0 hrs
# Insulin receptor = Insulin receptor (Homo sapiens, UniProt P06213); assay: Inhibition of human wild type IR using Poly(Ala,Glu,Lys,Tyr)6:2:5:1 as substrate preincubated for 2 hrs followed by ATP addition and measured every 2 mins for […] by spectrophotometric analysis
# [9] = target: Inhibitor of nuclear factor kappa-B kinase subunit alpha (Homo sapiens, UniProt O15111); assay: Inhibition of human wild type IKK alpha using RBER-CHKtide as substrate preincubated for 2 hrs followed by ATP addition and measured every 2 mins for […] by spectrophotometric analysis
# [10] = target: Cyclin-dependent kinase 1 (Homo sapiens, UniProt P06493); assay: Inhibition of human wild type CDK1 using PolyEY as substrate preincubated for 2 hrs followed by ATP addition and measured every 2 mins for […] by spectrophotometric analysis
# [11] = target: Mitogen-activated protein kinase 10 (Homo sapiens, UniProt P53779); assay: Inhibition of human wild type JNK3 using ATF2 as substrate preincubated for 2 hrs followed by ATP addition and measured every 2 mins for […] by spectrophotometric analysis
# BaF3 = assay: Antileukemic activity against mouse BaF3 cells harbouring BCR-ABL1 T315I mutant non-transduced with 5-FU treated bone marrow xenografted in Balb/c mouse assessed as alteration in B-lymphoid leukemia at 60 mg/kg, po administered twice daily; format: functional, organism-based
# Myotonin-protein kinase = Myotonin-protein kinase (Homo sapiens, UniProt Q09013); assay: Inhibition of human wild type DMPK using bio-4xCHKT as substrate preincubated for 2 hrs followed by ATP addition and measured every 2 mins for […] by spectrophotometric analysis
# [12] = target: Serine/threonine-protein kinase N1 (Homo sapiens, UniProt Q16512); assay: Inhibition of human wild type PKN1 using RBER-CHKtide as substrate preincubated for 2 hrs followed by ATP addition and measured every 2 mins for […] by spectrophotometric analysis
# [13] = target: Tyrosine-protein kinase TXK (Homo sapiens, UniProt P42681); assay: Inhibition of human wild type TXK using RBER-CHKtide as substrate preincubated for 2 hrs followed by ATP addition and measured every 2 mins for […] by spectrophotometric analysis
# [14] = target: Tyrosine-protein kinase BTK (Homo sapiens, UniProt Q06187); assay: Inhibition of human wild type BTK using PolyEY as substrate preincubated for 2 hrs followed by ATP addition and measured every 2 mins for […] by spectrophotometric analysis
# [15] = target: Interleukin-1 receptor-associated kinase 4 (Homo sapiens, UniProt Q9NWZ3); assay: Inhibition of human wild type IRAK4 using RB-CTF as substrate preincubated for 2 hrs followed by ATP addition and measured every 2 mins for […] by spectrophotometric analysis
# [16] = target: Serine/threonine-protein kinase mTOR (Homo sapiens, UniProt P42345); assay: Inhibition of human wild type mTOR using Casein as substrate preincubated for 2 hrs followed by ATP addition and measured every 2 mins for […] by spectrophotometric analysis
# Chain of Mitogen-activated protein kinase 12 (P53778 whole entry): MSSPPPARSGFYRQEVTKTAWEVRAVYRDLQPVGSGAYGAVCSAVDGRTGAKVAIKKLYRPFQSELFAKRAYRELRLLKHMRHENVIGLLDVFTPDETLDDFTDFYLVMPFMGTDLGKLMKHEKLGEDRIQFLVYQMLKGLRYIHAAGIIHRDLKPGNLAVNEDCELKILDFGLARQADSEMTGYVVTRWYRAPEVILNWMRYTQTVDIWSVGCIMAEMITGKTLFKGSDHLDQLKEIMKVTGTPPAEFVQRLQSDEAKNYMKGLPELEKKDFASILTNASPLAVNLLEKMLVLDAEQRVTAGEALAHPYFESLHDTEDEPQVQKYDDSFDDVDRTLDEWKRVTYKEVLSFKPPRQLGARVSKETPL
# Chain of Insulin receptor (P06213 28-758 limits assumed): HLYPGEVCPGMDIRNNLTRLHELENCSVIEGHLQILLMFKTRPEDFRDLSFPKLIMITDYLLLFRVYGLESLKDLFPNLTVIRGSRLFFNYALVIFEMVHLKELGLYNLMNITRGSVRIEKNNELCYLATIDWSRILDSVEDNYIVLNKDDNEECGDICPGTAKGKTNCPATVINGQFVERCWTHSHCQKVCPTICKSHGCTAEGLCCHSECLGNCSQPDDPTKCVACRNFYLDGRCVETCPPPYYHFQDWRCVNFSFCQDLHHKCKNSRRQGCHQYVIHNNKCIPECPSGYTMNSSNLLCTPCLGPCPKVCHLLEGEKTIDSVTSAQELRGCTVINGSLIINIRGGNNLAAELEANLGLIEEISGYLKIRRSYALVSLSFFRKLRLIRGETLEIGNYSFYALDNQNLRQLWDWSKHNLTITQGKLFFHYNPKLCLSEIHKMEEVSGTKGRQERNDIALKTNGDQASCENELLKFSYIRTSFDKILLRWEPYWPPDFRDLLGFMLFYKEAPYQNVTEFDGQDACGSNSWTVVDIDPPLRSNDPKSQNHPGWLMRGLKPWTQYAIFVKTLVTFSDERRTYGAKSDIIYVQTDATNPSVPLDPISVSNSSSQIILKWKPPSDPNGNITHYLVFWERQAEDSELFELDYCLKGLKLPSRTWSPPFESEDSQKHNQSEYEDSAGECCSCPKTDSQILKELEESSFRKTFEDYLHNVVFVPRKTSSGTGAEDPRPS
# Chain of Insulin receptor (P06213 763-1382 limits assumed): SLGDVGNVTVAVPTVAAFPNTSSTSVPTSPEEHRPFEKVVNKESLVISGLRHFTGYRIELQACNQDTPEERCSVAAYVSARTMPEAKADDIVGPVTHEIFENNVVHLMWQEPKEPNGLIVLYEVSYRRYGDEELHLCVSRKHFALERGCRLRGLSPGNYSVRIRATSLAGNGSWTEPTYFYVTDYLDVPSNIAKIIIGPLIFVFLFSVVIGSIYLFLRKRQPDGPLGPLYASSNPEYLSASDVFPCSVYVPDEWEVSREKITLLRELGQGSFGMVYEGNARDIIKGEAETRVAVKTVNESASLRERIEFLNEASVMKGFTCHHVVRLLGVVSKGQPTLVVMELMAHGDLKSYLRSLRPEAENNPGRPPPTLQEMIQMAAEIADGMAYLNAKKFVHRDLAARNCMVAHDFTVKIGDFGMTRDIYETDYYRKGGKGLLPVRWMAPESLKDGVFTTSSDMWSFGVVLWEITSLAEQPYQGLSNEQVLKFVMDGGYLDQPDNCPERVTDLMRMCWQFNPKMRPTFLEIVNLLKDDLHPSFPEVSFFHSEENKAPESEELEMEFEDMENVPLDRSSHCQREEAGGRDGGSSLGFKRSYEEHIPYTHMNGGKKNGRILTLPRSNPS
# Chain of Tyrosine-protein kinase TXK (P42681 whole entry): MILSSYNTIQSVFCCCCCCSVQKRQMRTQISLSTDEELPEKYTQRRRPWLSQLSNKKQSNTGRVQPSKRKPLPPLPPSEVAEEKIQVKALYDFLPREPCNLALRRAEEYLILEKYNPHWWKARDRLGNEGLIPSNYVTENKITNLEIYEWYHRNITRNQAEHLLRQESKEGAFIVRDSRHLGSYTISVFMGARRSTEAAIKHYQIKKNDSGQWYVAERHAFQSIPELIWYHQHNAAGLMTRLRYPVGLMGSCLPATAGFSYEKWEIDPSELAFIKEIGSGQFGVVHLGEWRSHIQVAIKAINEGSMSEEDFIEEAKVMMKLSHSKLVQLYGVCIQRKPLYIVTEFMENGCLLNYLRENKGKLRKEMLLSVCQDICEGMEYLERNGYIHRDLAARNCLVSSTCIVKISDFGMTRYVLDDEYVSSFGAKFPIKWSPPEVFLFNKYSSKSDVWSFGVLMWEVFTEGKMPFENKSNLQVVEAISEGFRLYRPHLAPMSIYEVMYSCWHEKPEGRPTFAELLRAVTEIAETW
# Chain of Tyrosine-protein kinase ITK/TSK (Q08881 whole entry): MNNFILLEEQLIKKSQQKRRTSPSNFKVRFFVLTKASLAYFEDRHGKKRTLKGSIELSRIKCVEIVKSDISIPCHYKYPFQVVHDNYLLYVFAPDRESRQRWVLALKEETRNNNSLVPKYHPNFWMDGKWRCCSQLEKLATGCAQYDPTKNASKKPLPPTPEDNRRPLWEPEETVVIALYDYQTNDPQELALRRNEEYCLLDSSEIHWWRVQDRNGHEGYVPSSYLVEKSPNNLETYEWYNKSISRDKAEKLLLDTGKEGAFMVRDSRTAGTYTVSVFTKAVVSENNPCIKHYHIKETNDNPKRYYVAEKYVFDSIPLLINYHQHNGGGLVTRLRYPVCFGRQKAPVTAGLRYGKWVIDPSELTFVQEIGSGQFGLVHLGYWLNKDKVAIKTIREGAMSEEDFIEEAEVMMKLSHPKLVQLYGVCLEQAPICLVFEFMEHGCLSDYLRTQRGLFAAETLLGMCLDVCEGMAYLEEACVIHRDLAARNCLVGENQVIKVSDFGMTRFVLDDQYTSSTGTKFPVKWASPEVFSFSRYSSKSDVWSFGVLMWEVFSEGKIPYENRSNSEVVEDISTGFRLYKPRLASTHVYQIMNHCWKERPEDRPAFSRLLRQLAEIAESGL
# Chain of Tyrosine-protein kinase receptor TYRO3 (Q06418 whole entry): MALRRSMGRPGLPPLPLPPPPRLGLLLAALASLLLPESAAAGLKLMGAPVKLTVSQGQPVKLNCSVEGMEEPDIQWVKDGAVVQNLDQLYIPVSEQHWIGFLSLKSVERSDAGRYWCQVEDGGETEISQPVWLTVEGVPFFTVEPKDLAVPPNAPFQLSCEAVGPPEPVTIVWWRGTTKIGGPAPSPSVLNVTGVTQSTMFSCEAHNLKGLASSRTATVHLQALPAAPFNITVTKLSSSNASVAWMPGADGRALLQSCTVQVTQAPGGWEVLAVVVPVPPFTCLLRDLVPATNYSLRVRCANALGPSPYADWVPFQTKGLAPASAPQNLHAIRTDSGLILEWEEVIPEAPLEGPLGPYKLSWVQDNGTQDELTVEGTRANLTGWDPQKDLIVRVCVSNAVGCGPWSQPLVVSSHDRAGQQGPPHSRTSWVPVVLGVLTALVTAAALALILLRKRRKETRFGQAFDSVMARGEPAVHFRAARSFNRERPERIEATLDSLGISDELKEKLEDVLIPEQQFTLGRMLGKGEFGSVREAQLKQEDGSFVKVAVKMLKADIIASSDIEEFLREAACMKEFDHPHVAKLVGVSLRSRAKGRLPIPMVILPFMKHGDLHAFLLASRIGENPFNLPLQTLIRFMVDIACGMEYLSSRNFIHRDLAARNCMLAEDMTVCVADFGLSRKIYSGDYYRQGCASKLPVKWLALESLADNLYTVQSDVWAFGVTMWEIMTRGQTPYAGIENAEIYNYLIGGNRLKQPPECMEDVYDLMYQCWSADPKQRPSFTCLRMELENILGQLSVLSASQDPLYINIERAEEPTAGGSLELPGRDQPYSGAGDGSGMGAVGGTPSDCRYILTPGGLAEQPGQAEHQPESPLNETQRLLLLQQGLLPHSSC
# Chain of Serine/threonine-protein kinase SIK2 (Q9H0K1 whole entry): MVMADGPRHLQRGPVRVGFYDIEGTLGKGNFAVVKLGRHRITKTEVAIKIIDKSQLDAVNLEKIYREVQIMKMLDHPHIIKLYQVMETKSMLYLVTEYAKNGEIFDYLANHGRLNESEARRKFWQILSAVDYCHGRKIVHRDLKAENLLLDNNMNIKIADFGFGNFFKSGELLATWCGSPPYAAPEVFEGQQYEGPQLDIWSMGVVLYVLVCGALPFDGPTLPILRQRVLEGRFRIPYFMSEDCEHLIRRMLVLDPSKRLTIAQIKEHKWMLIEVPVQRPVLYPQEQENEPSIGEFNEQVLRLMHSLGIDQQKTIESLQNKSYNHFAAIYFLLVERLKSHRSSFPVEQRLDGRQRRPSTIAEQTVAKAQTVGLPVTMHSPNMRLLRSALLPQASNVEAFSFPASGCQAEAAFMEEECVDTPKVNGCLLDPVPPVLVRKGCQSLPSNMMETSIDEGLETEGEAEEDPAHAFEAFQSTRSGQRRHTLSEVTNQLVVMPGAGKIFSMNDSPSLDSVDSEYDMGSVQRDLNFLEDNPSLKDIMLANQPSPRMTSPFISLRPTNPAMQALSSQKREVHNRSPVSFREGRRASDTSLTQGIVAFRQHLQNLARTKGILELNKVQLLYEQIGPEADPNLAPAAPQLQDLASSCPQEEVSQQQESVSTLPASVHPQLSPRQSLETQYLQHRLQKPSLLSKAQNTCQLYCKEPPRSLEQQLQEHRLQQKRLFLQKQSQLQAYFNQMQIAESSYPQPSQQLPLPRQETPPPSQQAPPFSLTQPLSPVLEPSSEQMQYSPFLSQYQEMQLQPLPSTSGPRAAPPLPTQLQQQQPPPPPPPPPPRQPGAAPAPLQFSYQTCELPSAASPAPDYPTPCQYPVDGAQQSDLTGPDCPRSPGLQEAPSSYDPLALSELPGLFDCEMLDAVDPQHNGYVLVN
# Chain of Cyclin-dependent kinase 1 (P06493 whole entry): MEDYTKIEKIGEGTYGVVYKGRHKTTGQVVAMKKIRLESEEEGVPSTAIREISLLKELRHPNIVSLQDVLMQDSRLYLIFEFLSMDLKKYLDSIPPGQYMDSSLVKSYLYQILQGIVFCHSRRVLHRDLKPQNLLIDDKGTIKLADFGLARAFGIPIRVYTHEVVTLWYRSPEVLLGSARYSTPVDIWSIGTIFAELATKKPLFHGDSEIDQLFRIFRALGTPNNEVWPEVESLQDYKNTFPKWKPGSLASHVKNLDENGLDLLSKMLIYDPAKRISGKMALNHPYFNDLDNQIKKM
structure (smiles),measurement,setting,value
CNC(=O)c1cc(Oc2ccc(NC(=O)Nc3cc(C(C)(C)C)nn3-c3ccc4ncccc4c3)c(F)c2)ccn1 [REBASTINIB],IC50,[1],87 nM
same,inhibition,[2],Active
same,IC50,[3],> 1000 nM
same,IC50,[4],270 nM
same,IC50,[5],> 1000 nM
same,IC50,[6],450 nM
same,IC50,[7],> 1000 nM
same,T1/2,[8],6.7 h
same,IC50,Insulin receptor,> 1000 nM
same,IC50,[9],> 1000 nM
same,IC50,[10],290 nM
same,IC50,[11],> 1000 nM
same,Activity,BaF3,Active
same,IC50,Myotonin-protein kinase,> 1000 nM
same,IC50,[12],> 1000 nM
same,IC50,[13],> 1000 nM
same,IC50,[14],330 nM
same,IC50,[15],> 1000 nM
same,IC50,[16],> 1000 nM
